According to patent US9943501B2 (KOJUN JAPAN CO., LTD., priority 2014, dated 2018):
Entries after “also recorded” stand apart in the source; their conditions may differ.

Legend:
[1] = biological target: T1, human-derived PPARγ ligand-binding domain (Homo sapiens, UniProt P37231); test: PPARγ activation test (GAL4 chimera / luciferase reporter in CV-1 cells); assay type: cell-based; details: for PPARγ ligand activity, ratio (%) of the activity of each synthesized product to the activity of the control substance (DMSO): control = 100
T1 construct: expressed in transfected cells; host or cells: CV-1 cells (African green monkey kidney-derived)
T1 sequence (P37231 238-503 limits assumed): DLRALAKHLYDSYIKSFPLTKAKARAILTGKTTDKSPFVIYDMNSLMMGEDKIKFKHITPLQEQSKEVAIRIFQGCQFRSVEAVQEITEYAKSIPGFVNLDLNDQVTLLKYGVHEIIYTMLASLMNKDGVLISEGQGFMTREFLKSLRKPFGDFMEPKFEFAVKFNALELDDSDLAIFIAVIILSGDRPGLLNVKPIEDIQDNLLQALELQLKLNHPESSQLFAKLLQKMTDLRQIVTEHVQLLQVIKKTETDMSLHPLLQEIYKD
Experimental: A measurement method for the PPAR activation test in Examples below were conducted as described below.
(1) PPARγ Activation Test
A plasmid pM-PPARγ for the expression of a chimeric protein composed of a human-derived PPARγ ligand-binding domain and a DNA-binding domain of a yeast-derived GAL4 transcription factor, and a plasmid p4×UASg-tk-luc containing a Cypridina-derived luciferase structural gene linked downstream of a GAL4 responsive sequence designed such that its expression was controlled by this chimeric protein, were prepared. Also, a Renilla-derived luciferase expression plasmid pRL-CMV having a viral expression promoter for constitutive intracellular expression was prepared as a plasmid for the correction of transfection efficiency. On the other hand, DMEM containing 10% FBS was used as a medium for CV-1 cells (African green monkey kidney-derived). The CV-1 cells were seeded at 4.5×10^5 cells over a 100-mm Petri dish and cultured in an incubator at 37° C. in a 5% CO2 environment.
(1-2) Transformation of CV-1 Cell
The CV-1 cells thus cultured for 24 hours were cotransfected with 2.0 μg of pM-PPARγ, 4.0 μg of p4×UASg-tk-luc, and 0.04 μg of pRL-CMV to transform the CV-1 cells. The transformation was carried out by the liposome method using LipofectAMINE(R) Reagent (a product of Invitrogen Corp.). After the transformation operation, the cells were cultured at 37° C. for 3.5 hours in a 5% CO2 environment.
(1-3) Addition of Test Sample
The CV-1 cells thus incubated were recovered by trypsin treatment, and […] thereof was inoculated at a concentration of 1×10^5 cells/mL to a 96-well plate. Each test sample was diluted with DMEM containing 4% FBS to adjust its concentration to twice the final concentration, and […] thereof was added to the 96-well plate mentioned above. DMSO was used as a control substance. After the addition of the test sample or the control substance (DMSO), the mixture was incubated at 37° C. for 24 hours in a 5% CO2 environment.
(1-4) Measurement of Luciferase Activity
The luciferase activity was measured using Dual-Luciferase(R) Reporter Assay System (a product of Promega K.K.). The culture solution was removed from the 96-well plate. The cells were washed with PBS(−), and moisture was removed therefrom using a paper towel. To the cells, […] of a cell lysis solution (Passive Lysis Buffer) was added, and the 96-well plate was shaken for 15 minutes. The cell extract was transferred at […] to a 96-well luminoplate. A luminescent substrate solution was added thereto at […]. The luminescence intensity based on the luciferase was measured for a measurement time set to 10 seconds using a luminometer (Micro Lumat Plus, a product of Berthold Japan Co., Ltd.).
The PPARγ-activating effect of the test sample was evaluated on the basis of a ratio (%) relative to controls. In order to correct transfection efficiency, the measured Cypridina luciferase activity value (A) was divided by the measured Renilla luciferase activity value (B) to determine a value (A/B). The average A/B value of the control group was calculated and defined as 100. The A/B value of the test sample was calculated, and the ratio (%) of this value to the average value of the controls was used as the ability of the test sample to activate PPARγ.
Their PPARγ ligand activity was measured in the same way as in Example 7 except that the incubation time after the test sample addition was set to 48 hours. The values shown in the table below and the ordinate of the drawing depict the ratio (%) of the activity of each synthesized product to the activity of the control substance (DMSO). In Table 1 and FIG. 13, these various butenolide compounds used as test samples were each indicated by the functional group of R^2 in the formula (1).

UCP-1 gene = test: Measurement of UCP-1 gene expression level in mesenchymal cell line 10T1/2; assay type: cell-based; details: 10T1/2 cells; 100 μg/mL; 24 hours; FIG. 11
From the text: Mitochondrial uncoupling proteins (or uncoupling proteins: UCPs) have the function of uncoupling oxidative phosphorylation reaction in the mitochondrial inner membrane to consume the energy as heat. Among them, UCP-1 is specifically expressed in brown fat cells that produce heat by burning fat. In recent years, particular synthetic PPARγ agonists have been reported to convert white fat cells working to store fat to brown fat cells working to burn fat (H. Ohno et al, Cell metabolism, 2012, Vol. 15, pp. 395-404).
The test was conducted as follows: a mesenchymal cell line 10T1/2 was inoculated at 1×10^4 cells/mL to a 12-well plate. The cells were cultured until confluent. Then, the fraction of peak 5 (5H4PB) was added thereto such that its final concentration was 100 μg/mL. DMSO was used as a control substance. Twenty-four hours after the sample addition, mRNA was recovered from the cells, and the mRNA level was determined. The mRNA quantification was carried out using LightCycler(R) (Roche Applied Science). The ordinate of the drawing depicts the ratio of the UCP-1 expression level for the fraction of peak 5 to the UCP-1 expression level for the control substance (DMSO). […] The increased expression level of UCP-1 indicates enhanced heat production from lipids.

[2] = system: liver (hepatocytes) of C57BL/6J mice fed with a high-fat diet; test: Influence of administration on liver tissue (histopathological examination); assay type: in vivo, mouse; details: 12 weeks, high-fat diet
From the text: In Example 13, the liver was collected during the collection of fat tissues from each individual and histopathologically examined. The findings from the histopathological examination were as described below.
For the individuals of the normal group, the deposition of fat droplets was not observed in the hepatocytes, whereas only the very mild infiltration of inflammatory cells was observed.

[3] = test sample concentration 0.032 μg/mL, incubation 48 hours
[4] = test sample concentration 0.08 μg/mL, incubation 48 hours
[5] = test sample concentration 0.16 μg/mL, incubation 48 hours
[6] = test sample concentration 0.4 μg/mL, incubation 48 hours
[7] = test sample concentration 0.8 μg/mL, incubation 48 hours, * = twice or more vs control, p<0.05
[8] = test sample concentration 2 μg/mL, incubation 48 hours, * = twice or more vs control, p<0.05
[9] = test sample concentration 4 μg/mL, incubation 48 hours, * = twice or more vs control, p<0.05

| Compound | PPARγ ligand activity, ratio (%) of the activity of each synthesized product to the activity of the control substance (DMSO) [1, 3] | PPARγ ligand activity, ratio (%) of the activity of each synthesized product to the activity of the control substance (DMSO) [1, 4] | PPARγ ligand activity, ratio (%) of the activity of each synthesized product to the activity of the control substance (DMSO) [1, 5] | PPARγ ligand activity, ratio (%) of the activity of each synthesized product to the activity of the control substance (DMSO) [1, 6] | PPARγ ligand activity, ratio (%) of the activity of each synthesized product to the activity of the control substance (DMSO) [1, 7] | PPARγ ligand activity, ratio (%) of the activity of each synthesized product to the activity of the control substance (DMSO) [1, 8] | PPARγ ligand activity, ratio (%) of the activity of each synthesized product to the activity of the control substance (DMSO) [1, 9] | PPARγ ligand activity, ratio (%) of the activity of each synthesized product to the activity of the control substance (DMSO) ([1]; test sample concentration 10 μg/mL, incubation 48 hours, * = twice or more vs control, p<0.05) | PPARγ ligand activity, ratio (%) of the activity of each synthesized product to the activity of the control substance (DMSO) ([1]; test sample concentration 20 μg/mL, incubation 48 hours, * = twice or more vs control, p<0.05) | deposition of fat droplets in the hepatocytes ([2]; 0.037 μg/kg/day) | deposition of fat droplets in the hepatocytes ([2]; 10 mg/kg/day) | swelling of hepatocytes ([2]; 10 mg/kg/day) | PPARγ ligand activity of butenolide compounds (in words) ([1]; Example 8, incubation 48 hours, Table 1 and FIG. 13, listed as 5-hydroxy-4-(4-methylphenyl)butenolide) | expression level of UCP-1 (mRNA) relative to control substance (DMSO) (UCP-1 gene) | PPARγ ligand activity of the fraction of peak 5 ([1]; 50 μg/mL and 100 μg/mL, FIG. 9) | PPARγ ligand activity of peak fractions ([1]; final concentration 100 μg/mL, FIG. 7) |
| --- | --- | --- | --- | --- | --- | --- | --- | --- | --- | --- | --- | --- | --- | --- | --- | --- |
| Cc1ccc(C2=CC(=O)OC2O)cc1 (stereo not drawn) | 170% | 110% | 120% | 180% | 260* % | 560* % | 710* % | – | – | – | – | – | high activity in a low concentration range; also recorded: highest activity | – | – | – |
| O=C1C=C(c2ccccc2)C(O)O1 (single isomer, unassigned) [5H4PB, 5-hydroxy-4-phenylbutenolide] | – | – | – | – | – | – | – | – | – | – | – | – | – | effect of elevating the expression level of UCP-1 | elevate in a concentration-dependent manner | distinct PPARγ ligand activity |
| O=C1C=C(Cc2ccccc2)C(O)O1 (stereo not drawn) [Benzyl, 5-hydroxy-4-benzylbutenolide] | 120% | 220% | 110% | 130% | 170% | 310* % | 360* % | – | – | – | – | – | – | – | – | – |

Second part, led by results:

| PPARγ ligand activity, ratio (%) of the activity of each synthesized product to the activity of the control substance (DMSO) [1, 3] | PPARγ ligand activity, ratio (%) of the activity of each synthesized product to the activity of the control substance (DMSO) [1, 4] | PPARγ ligand activity, ratio (%) of the activity of each synthesized product to the activity of the control substance (DMSO) [1, 5] | PPARγ ligand activity, ratio (%) of the activity of each synthesized product to the activity of the control substance (DMSO) [1, 6] | PPARγ ligand activity, ratio (%) of the activity of each synthesized product to the activity of the control substance (DMSO) [1, 7] | PPARγ ligand activity, ratio (%) of the activity of each synthesized product to the activity of the control substance (DMSO) [1, 8] | PPARγ ligand activity, ratio (%) of the activity of each synthesized product to the activity of the control substance (DMSO) [1, 9] | PPARγ ligand activity, ratio (%) of the activity of each synthesized product to the activity of the control substance (DMSO) ([1]; test sample concentration 10 μg/mL, incubation 48 hours, * = twice or more vs control, p<0.05) | PPARγ ligand activity, ratio (%) of the activity of each synthesized product to the activity of the control substance (DMSO) ([1]; test sample concentration 20 μg/mL, incubation 48 hours, * = twice or more vs control, p<0.05) | deposition of fat droplets in the hepatocytes ([2]; 0.037 μg/kg/day) | deposition of fat droplets in the hepatocytes ([2]; 10 mg/kg/day) | swelling of hepatocytes ([2]; 10 mg/kg/day) | Compound | PPARγ ligand activity of butenolide compounds (in words) ([1]; Example 8, incubation 48 hours, Table 1 and FIG. 13, listed as 5-hydroxy-4-(4-methylphenyl)butenolide) | expression level of UCP-1 (mRNA) relative to control substance (DMSO) (UCP-1 gene) | PPARγ ligand activity of the fraction of peak 5 ([1]; 50 μg/mL and 100 μg/mL, FIG. 9) | PPARγ ligand activity of peak fractions ([1]; final concentration 100 μg/mL, FIG. 7) |
| --- | --- | --- | --- | --- | --- | --- | --- | --- | --- | --- | --- | --- | --- | --- | --- | --- |
| 130% | 110% | 120% | 130% | 140% | 130% | 240* % | 340* % | 520* % | – | – | – | Cc1ccc(CC2=CC(=O)OC2O)cc1 (stereo not drawn) [Methylbenzyl, 5-hydroxy-4-(4-methylbenzyl)butenolide] | – | – | – | – |
| – | – | – | – | – | – | – | – | – | very mild to mild depositions | moderate deposition | mildly swollen | CN(CCOc1ccc(CC2SC(=O)NC2=O)cc1)c1ccccn1 (stereo not drawn) [rosiglitazone, reference compound] | – | – | – | – |
